Active and inactive are the calls of the source.
How the values were obtained:
[1] = viability of uninfected HEp-2 cells – cell-based, HTS, cytotoxicity control for RSV inhibitor project, dose response (AID 2410); assay type: functional; conditions: human respiratory syncytial virus
[2] = Luminescence Cell-Based Dose Retest to Confirm Inhibitors of Cancer Stem Cells. [Related pubchem assays (depositor defined):AID2717, AID2721]; assay type: functional; conditions: Homo sapiens
[3] = molecular target: FAD-linked sulfhydryl oxidase ALR (Homo sapiens, UniProt P55789); test: ALR-catalysed DTT oxidation blockers – biochemical, H2O2 detection, luminescence, cherry-pick, dose response (AID 493248)
FAD-linked sulfhydryl oxidase ALR, sequence (P55789 whole entry): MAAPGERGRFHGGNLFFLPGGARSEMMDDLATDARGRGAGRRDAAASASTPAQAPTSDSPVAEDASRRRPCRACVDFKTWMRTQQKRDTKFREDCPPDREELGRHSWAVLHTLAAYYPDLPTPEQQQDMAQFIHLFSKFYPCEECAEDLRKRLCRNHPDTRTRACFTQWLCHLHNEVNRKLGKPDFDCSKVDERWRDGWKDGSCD

[4] = molecular target: Cytochrome P450 2C9 (Homo sapiens, UniProt P11712)
Cytochrome P450 2C9, sequence (P11712 whole entry): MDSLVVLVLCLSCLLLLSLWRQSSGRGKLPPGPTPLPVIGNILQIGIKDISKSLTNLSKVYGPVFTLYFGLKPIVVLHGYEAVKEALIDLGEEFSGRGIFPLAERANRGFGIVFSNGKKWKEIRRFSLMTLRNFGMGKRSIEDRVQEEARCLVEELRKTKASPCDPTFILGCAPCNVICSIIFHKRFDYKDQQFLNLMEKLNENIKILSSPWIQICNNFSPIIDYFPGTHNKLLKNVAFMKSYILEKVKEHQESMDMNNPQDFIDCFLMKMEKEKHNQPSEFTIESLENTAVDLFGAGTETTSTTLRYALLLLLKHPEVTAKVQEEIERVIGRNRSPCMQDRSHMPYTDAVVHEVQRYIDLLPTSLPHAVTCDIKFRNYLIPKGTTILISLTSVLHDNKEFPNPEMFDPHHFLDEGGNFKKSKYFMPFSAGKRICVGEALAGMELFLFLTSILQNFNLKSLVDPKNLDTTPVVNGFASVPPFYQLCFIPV

[5] = cells; assay type: functional
[6] = molecular target: T1, Rac GTPase-activating protein 1 (Homo sapiens, UniProt Q9H0H5); test: blockers of MgcRacGAP-driven Rac1 GTP hydrolysis – biochemical, ADP Hunter fluorescence, primary and confirmatory, confirmation (AID 624330); assay type: functional
T1 sequence (Q9H0H5 whole entry): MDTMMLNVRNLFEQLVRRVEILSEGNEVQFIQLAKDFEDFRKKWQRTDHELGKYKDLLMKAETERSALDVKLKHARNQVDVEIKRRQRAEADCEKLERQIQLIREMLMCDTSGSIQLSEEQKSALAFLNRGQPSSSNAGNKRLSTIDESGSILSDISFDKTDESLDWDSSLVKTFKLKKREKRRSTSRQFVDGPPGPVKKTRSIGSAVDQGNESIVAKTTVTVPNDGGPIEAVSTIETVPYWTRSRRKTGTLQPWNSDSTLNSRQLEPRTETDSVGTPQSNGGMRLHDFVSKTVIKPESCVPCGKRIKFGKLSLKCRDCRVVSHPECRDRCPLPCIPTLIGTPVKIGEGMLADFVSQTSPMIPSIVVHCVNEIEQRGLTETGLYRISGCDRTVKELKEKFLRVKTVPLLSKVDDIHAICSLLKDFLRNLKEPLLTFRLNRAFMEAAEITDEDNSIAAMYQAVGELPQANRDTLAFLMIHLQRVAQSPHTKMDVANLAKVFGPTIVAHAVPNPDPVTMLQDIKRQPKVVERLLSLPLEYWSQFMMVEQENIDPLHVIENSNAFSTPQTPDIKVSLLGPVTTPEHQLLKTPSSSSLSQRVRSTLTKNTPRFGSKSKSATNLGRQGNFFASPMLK

[7] = Luminescence Cell-Based Dose Response HTS to Identify Activators of Luciferase Translation or Activity in H4 […] Cells. [Related pubchem assays: 1829 (Project Summary), 1814 (Primary HTS)]; assay type: functional
[8] = test system: H4; test: Luminescence Cell-Based Dose Response HTS to Identify Activators of 5'UTR Stem-Loop Driven Prion Protein mRNA Translation in H4 Neuroglioblastoma Cells. [Related pubchem assays: 1829 (Project Summary), 1814 (Primary HTS)]; assay type: functional; conditions: Homo sapiens
[9] = molecular target: Large T antigen (Simian virus 40, UniProt P03070); assay type: functional, Betapolyomavirus macacae;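 note: Confirmatory-stage PubChem screen for compounds that inhibit SV40 T antigen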
Large T antigen, sequence (P03070 whole entry): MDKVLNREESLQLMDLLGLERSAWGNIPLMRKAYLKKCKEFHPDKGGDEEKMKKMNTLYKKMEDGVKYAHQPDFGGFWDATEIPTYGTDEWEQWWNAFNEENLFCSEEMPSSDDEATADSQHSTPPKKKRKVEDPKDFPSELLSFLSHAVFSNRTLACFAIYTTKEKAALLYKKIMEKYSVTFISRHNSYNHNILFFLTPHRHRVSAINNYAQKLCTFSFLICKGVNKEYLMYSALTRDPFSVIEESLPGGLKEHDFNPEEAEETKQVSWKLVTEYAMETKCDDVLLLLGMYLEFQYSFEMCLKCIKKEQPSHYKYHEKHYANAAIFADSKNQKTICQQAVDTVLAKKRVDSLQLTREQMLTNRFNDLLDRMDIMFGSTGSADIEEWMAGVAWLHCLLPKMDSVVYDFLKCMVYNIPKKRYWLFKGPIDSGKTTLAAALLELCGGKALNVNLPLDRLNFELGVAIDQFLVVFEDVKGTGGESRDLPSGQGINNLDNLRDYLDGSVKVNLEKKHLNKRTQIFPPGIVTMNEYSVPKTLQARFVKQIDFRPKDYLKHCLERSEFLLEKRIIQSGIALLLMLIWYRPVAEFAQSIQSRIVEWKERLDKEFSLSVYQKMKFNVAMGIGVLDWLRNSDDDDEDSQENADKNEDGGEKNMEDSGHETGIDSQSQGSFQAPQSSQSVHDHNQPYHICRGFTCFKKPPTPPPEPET

[10] = molecular target: Luciferin 4-monooxygenase (Photinus pyralis, UniProt P08659); test: inhibition of purified Photinus pyralis luciferase – biochemical, luminescence, dose response (AID 1891)
Luciferin 4-monooxygenase, sequence (P08659 whole entry): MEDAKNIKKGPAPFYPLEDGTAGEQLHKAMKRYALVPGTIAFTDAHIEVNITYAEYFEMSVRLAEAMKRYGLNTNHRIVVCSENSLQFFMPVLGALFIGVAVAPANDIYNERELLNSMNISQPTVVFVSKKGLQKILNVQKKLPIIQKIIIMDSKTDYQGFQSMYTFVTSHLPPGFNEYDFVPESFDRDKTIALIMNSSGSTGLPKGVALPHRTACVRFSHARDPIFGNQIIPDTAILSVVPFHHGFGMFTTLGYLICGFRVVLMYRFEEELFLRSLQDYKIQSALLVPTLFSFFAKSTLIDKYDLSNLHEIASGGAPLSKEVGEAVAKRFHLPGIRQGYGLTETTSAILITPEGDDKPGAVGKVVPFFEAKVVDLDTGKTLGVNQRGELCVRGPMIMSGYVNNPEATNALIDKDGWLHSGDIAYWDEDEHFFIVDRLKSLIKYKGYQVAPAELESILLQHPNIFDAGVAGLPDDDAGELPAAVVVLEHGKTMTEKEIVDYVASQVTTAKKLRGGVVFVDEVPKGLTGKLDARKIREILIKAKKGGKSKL

[11] = Luminescence Cell-Based Dose Confirmation HTS to Identify Inhibitors of Platelet Dense Granule Release. [Related pubchem assays: 1663 (Primary HTS), 1678 (Summary of Project)]; assay type: functional
[12] = Trypanosoma cruzi growth suppression in host cells – NIH3T3 host cells, beta-gal luminescence, confirmation (AID 2044); assay type: functional, cell-based;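 note: intracellular parasites grown in NIH/3T3 mouse fibroblasts as host cells; luminescent beta-galactosidase reporter signal from transgenic T. cruzi replicating inside host cells; inhibitors lower the luminescence signal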
[13] = NIH3T3 cell viability loss – ATP luminescence, mouse fibroblasts, counter-screen, dose response (AID 2010); assay type: functional, cell-based;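 note: cells exposed to compound for about 90 hours before reading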
[14] = test system: Streptococcus sp. 'group A'; test: Streptococcus pyogenes SK(-)GAS viability under kanamycin – luminescence, BacTiterGlo, confirmation, counter-screen for streptokinase expression inhibitor project, dose response (AID 1900); assay type: functional, organism-based
[15] = molecular target: T2, Streptokinase A (Streptococcus pyogenes serotype M1, UniProt P10520); test: viability-normalized secreted streptokinase activity reduction – plasminogen activation absorbance, OD405, dose response (AID 1914); assay type: functional, Streptococcus pyogenes M1 GAS;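 note: secreted streptokinase activity via plasminogen activation per viability signal from cell pellet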
T2 sequence (P10520 whole entry): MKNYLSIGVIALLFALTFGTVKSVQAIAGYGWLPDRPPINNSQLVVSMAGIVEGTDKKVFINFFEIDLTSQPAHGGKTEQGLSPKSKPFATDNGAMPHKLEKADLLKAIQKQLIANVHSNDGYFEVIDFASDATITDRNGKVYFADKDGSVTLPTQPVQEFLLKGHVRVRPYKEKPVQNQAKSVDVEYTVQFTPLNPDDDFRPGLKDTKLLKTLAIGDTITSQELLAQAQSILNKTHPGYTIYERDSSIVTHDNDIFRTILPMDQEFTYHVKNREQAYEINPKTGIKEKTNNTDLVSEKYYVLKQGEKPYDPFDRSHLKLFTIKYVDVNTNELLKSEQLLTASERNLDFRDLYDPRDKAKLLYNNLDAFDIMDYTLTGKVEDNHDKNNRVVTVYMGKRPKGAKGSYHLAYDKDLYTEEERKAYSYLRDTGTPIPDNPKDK

[16] = test system: Streptococcus; test: GAS UMAA2166 growth inhibition – luminescence, BacTiterGlo, counter-screen for streptokinase expression inhibitor project, dose response (AID 1915); assay type: functional, organism-based;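 note: potency for reduction of bacterial viability or growth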
[17] = molecular target: T3, Heat shock factor protein 1 (Mus musculus, UniProt P38532); test: decrease of HSF1-responsive luciferase luminescence – cell-based, NIH3T3, dose retest, confirmation (AID 2382); assay type: functional;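 note: NIH3T3 fibroblasts with HSF1-driven luciferase reporter stressed by proteasome inhibitor MG132; luminescence from HSF1-driven luciferase expression after 8 hours of MG132 stress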
T3 sequence (P38532 whole entry): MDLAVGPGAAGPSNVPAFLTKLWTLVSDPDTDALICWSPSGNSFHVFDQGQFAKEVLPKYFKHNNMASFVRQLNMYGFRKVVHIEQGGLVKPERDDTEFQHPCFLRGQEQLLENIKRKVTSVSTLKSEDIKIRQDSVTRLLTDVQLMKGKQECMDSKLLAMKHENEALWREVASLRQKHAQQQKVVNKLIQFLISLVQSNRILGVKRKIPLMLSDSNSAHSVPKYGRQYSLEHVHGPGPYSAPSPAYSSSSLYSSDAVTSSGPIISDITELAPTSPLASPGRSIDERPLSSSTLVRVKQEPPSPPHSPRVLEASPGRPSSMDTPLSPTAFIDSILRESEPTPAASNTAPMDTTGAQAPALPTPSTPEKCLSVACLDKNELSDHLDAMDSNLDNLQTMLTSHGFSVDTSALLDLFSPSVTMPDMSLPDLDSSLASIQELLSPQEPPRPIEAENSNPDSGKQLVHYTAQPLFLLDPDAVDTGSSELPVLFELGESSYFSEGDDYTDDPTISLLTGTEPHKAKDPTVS

[18] = test system: INS1; test: INS-1E survival protection against cytokine death – cell-based, luminescence, retest, dose response (AID 449756); assay type: functional; conditions: Rattus norvegicus;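 note: cell death triggered by IL-1 beta plus TNF-alpha plus IFN-gamma mixture; protective hits raise ATP signal compared with cytokine alone wells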

For O=C1C=C(c2ccc(Cl)c(C(F)(F)F)c2)C[C@@H](c2ccc(Cl)cc2)C1, the CC50 [1] was 12.1 µM (active) and the AC50 [2] was 3.41 µM (active).

In the case of CC(=O)c1cccc(Oc2cc(NN3CCCCC3)c([N+](=O)[O-])cc2[N+](=O)[O-])c1, the AC50 [3] is reported as 0.471 µM (active).

With COc1cc(NS(=O)(=O)c2ccc(NC(=O)NC3CCCCC3)cc2)nc(OC)n1 the AC50 [3] was 3.49 µM (active).

In the case of Cc1cccc(NC(=O)CC2Nc3cccc4cccc(c34)NC2=O)c1 (stereo unspecified), the CC50 [1] is reported as > 50 µM (active) and the AC50 [4] is reported as 12.6 µM (inconclusive).

For CCOC(=O)c1cc(-c2csc(COc3ccc(Cl)cc3)n2)on1, the IC50 [5] was < 0.1 µM (active).

For CCOC(=O)Cc1csc(NC(=O)/C=C/c2ccccc2Cl)n1, the CC50 [1] was 18.9 µM (active).

For O=C(O)c1ccc(NC(=O)c2cn(-c3ccccc3)nc2-c2ccc(Br)cc2)cc1, the CC50 [1] was 21 µM (active).

With Cc1ccc(O)c(CCc2ccc(O)cc2)n1 the AC50 [3] was 2.64 µM (active).

For CN(C)S(=O)(=O)c1ccc(-c2cn3ccccc3n2)cc1, the AC50 [3] was 2.05 µM (active).

In the case of COc1ccc(NC(S)=NCC2CCN(c3ccc(OC)cc3)C2)cc1 (stereo unspecified), the IC50 [6] is reported as 39.4 µM (active).

In the case of COc1cc(/C=C/C(=O)OCC(=O)Nc2ccc3c(c2)OCCO3)ccc1O, the IC50 [6] is reported as 39.8 µM (active).

In the case of O=C(NCCCN1CCCC1=O)C(=O)Nc1cccc(F)c1, the EC50 [7] is reported as 0.233 µM (active) and the EC50 [8] is reported as > 120 µM (not active).

In the case of CCn1c(=O)c(C(=O)CN(C)Cc2cccc(OC)c2OC)c(N)n(Cc2ccccc2)c1=O, the IC50 [6] is reported as 83.9 µM (active).

For CC(=O)O[C@H]1C[C@@]2(C)[C@@H](C[C@@H](O)[C@H]3[C@@]4(C)CC[C@@H](O)[C@@H](C)[C@@H]4CC[C@@]32C)/C1=C(/CCC=C(C)C)C(=O)O, the IC50 [9] was 31.6 µM (active).

In the case of Cc1ccc(N2NC(=O)/C(=C/C=C/c3ccco3)C2=O)cc1C, the IC50 [5] is reported as 13 µM (active).

In the case of COc1cccc2cc(C(=O)NCc3ccc(F)cc3)c(=N)oc12, the IC50 [5] is reported as > 50 µM (active).

For NNC(=O)c1sc(-c2ccc(Cl)cc2)cc1N, the AC50 [3] was 2.39 µM (active).

For COc1cc(/C=N/NC(=O)c2nonc2C)ccc1O, the EC50 [10] was 23.5 µM (active), the EC50 [11] was 4.42 µM (active) and the IC50 [6] was 28.8 µM (active).

In the case of CCn1nnc(NC(=O)c2sc3ccccc3c2Cl)n1, the IC50 [5] is reported as 19.2 µM (active).

For CN(C)c1ccc(CNc2ccc3c(c2)ncn3C)cc1, the IC50 [9] was 22.1 µM (active) and the AC50 [3] was 1.78 µM (active).

For Cc1cc(C=C2C(=O)N(C)C(=S)N(C)C2=O)c(C)n1-c1ccncc1, the IC50 [9] was 50.2 µM (active).

In the case of O=C(COc1ccc(-c2ccccc2)cc1)Nc1cccnc1, the IC50 [5] is reported as 4.39 µM (active).

With COc1ccccc1CNCC(=O)N1CC(=O)Nc2ccccc21 the IC50 [6] was 143 µM (active).

With COc1ccc(N2CSC3=C(C#N)C(c4cc(OC)ccc4OC)CC(=O)N3C2)c(OC)c1 (stereo unspecified) the IC50 [9] was 63.1 µM (active).

For COC(=O)CN(C#N)c1nc(N(C)C)nc(N(C)C)n1, the IC50 [5] was 9.57 µM (active).

For CNc1nc(-c2ccc3c(c2)CCN3C(=O)c2cccc(F)c2)cs1, the EC50 [7] was 1.41 µM (active) and the EC50 [8] was 4.2 µM (active).

With O=C(Nc1nc(=O)c2ccccc2s1)c1ccc(F)cc1 the EC50 [7] was 0.107 µM (active) and the EC50 [8] was > 120 µM (not active).

For Cc1cccc(-n2c(=O)c3ccccc3n3c(S)nnc23)c1C, the IC50 [6] was 40.7 µM (active).

In the case of COc1cc(C2OCC3C(c4ccc(OC5OC(CO)C(O)C(O)C5O)c(OC)c4)OCC23)ccc1O (stereo unspecified), the IC50 [9] is reported as 21.3 µM (active).

With COc1ccc(OC)c(Nc2nc(N(C)c3ccccc3)nc(N)c2[N+](=O)[O-])c1 the CC50 [1] was > 50 µM (active), the EC50 [12] was 0.888 µM (active) and the EC50 [13] was > 30 µM (not active).

In the case of CCn1c2ccccc2c2nnc(SCc3ccccc3)nc21, the CC50 [1] is reported as 34.6 µM (active).

In the case of CCOC(=O)c1cc(-c2cccs2)nc2c1c(C)nn2-c1ccccn1, the CC50 [1] is reported as 16.4 µM (active), the EC50 [14] is reported as 13.1 µM (active) and the EC50 [15] is reported as 122 µM (active). The EC50 [16] was 21.6 µM (active) and the AC50 [2] was 8.5 µM (active).

With COc1cc(/C(C)=N/NC(=O)CSc2nnc(C)s2)ccc1O the IC50 [9] was 24.2 µM (active).

In the case of CCOc1ccc(-c2nnc(NC(=O)CCCOc3cccc(C)c3)o2)cc1, the IC50 [5] is reported as 5.86 µM (active).

With COc1cc(/C=N/NC(=O)c2ccc3[nH]cnc3c2)ccc1O the IC50 [9] was 7.38 µM (active).

With Cc1csc(/C(=N/OC(=O)c2ccco2)C(N)=O)n1 the AC50 [3] was 0.252 µM (active).

With CCOc1cc(/C=C(\C#N)C(=O)NCC2CCCO2)ccc1O (stereo unspecified) the IC50 [6] was 41.5 µM (active).

In the case of COC(=O)COc1ccc(-c2nn(C)c(=O)c3ccccc23)cc1, the IC50 [5] is reported as 2.56 µM (active).

With CC(=O)Nc1ccc(OC(=O)Cc2ccc(Cl)cc2)cc1 the IC50 [6] was 23.4 µM (active).

For O=C(CN1CCN(c2ccccc2)CC1)Nc1ccccc1Cl, the AC50 [3] was 6.68 µM (active).

For Oc1c2c(nc3cc(-c4cccc(Cl)c4)nn13)CCCC2, the CC50 [1] was 39.3 µM (active).

For CCSc1ncc(/C=N/Nc2ccc([N+](=O)[O-])cc2)n1C, the EC50 [8] was 0.793 µM (active).

With COC(=O)c1c(NC(=O)C2CC=CCC2C(=O)O)sc(C(N)=O)c1C (stereo unspecified) the AC50 [3] was 3.13 µM (active).

In the case of CCC(Sc1nc(C)cc(C)n1)C(=O)NC1=NN=C(c2ccc(C)cc2)CS1 (stereo unspecified), the EC50 [17] is reported as 12.2 µM (active) and the AC50 [18] is reported as 4.8 µM (active).

In the case of CCN(CC)S(=O)(=O)c1ccc(NCC2COc3ccccc3O2)c([N+](=O)[O-])c1 (stereo unspecified), the CC50 [1] is reported as 13 µM (active).

In the case of COc1cc(/C=C/C(=O)OCc2cn3cc(Cl)ccc3n2)ccc1O, the IC50 [6] is reported as 45.5 µM (active).

Reference: ChEMBL document CHEMBL1201862, “PubChem BioAssay data set” (2004)
